Data published in US20240101546A1, “HETEROARYL-ACETYLENES, PHARMACEUTICAL COMPOSITIONS THEREOF, AND THEIR THERAPEUTIC APPLICATIONS” (Eubulus Biotherapeutics Inc., priority 2020, published 2024).

Test system: lung cancer cell line NCI-H82
Test: Cell proliferation assay, NCI-H82 (CELL-TITER GLO)
Type: cell-based
Conditions: Homo sapiens, NCI-H82, 72 h, NCI-H82 cells, 72 h incubation, cell viability by CELL-TITER GLO, top concentration 1 μM; read-out: EC50, Inhibition of NCl-H82 Cell Proliferation
How it was run: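 NCI-H82 cells, 1,000 per well in RPMI1640, were treated after overnight plating with a 3-fold dilution series from 1 μM. Viability read by CellTiter-Glo luminescence after 72 h. EC50 derived from the curves.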

`C#Cc1nc(NC(=O)N[C@@H](CO)c2ccc(N3CCCC(F)(F)C3)cn2)cs1` [Compound A136, (R)-1-(1-(5-(3,3-Difluoropiperidin-1-yl)pyridin-2-yl)-2-hydroxyethyl)-3-(2-ethynylthiazol-4-yl)urea] and `C#Cc1nc(NC(=O)N[C@@H](CO)c2ccc(C3=C(C#N)CCCC3)cn2)cs1` [Compound A142, (R)-1-(1-(5-(2-Cyanocyclohex-1-en-1-yl)pyridin-2-yl)-2-hydroxyethyl)-3-(2-ethynylthiazol-4-yl)urea] cannot be ordered by EC50: at most 200 nM for the first, at most 200 nM for the second.

`C#Cc1nc(NC(=O)N[C@@H](CO)c2ccc(N3CCCCCC3)cc2)cs1` [Compound A137, (R)-1-(1-(4-(Azepan-1-yl)phenyl)-2-hydroxyethyl)-3-(2-ethynylthiazol-4-yl)urea] and `C#Cc1nc(NC(=O)N[C@@H](CO)c2ccc(N3CCCCCC3=O)cc2)cs1` [Compound A138, (R)-1-(2-Ethynylthiazol-4-yl)-3-(2-hydroxy-1-(4-(2-oxoazepan-1-yl)phenyl)-ethyl)urea] cannot be ordered by EC50: at most 200 nM for the first, at most 200 nM for the second.

`C#Cc1nc(NC(=O)N[C@@H](CO)c2ccc(N3CCCc4c3cnn4C)cc2)cs1` [Compound A139, (R)-1-(2-Ethynylthiazol-4-yl)-3-(2-hydroxy-1-(4-(1-methyl-1,5,6,7-tetrahydro-4H-pyrazolo[4,3-b]pyridin-4-yl)phenyl)ethyl)urea] and `C#Cc1nc(NC(=O)N[C@@H](CO)c2ccc(N3CCCc4nn(C)cc43)cc2)cs1` [Compound A140, (R)-1-(2-Ethynylthiazol-4-yl)-3-(2-hydroxy-1-(4-(2-methyl-2,5,6,7-tetrahydro-4H-pyrazolo[4,3-b]pyridin-4-yl)phenyl)ethyl)urea] cannot be ordered by EC50: at most 200 nM for the first, at most 200 nM for the second.

`C#Cc1nc(NC(=O)N[C@@H](CO)c2ccc(C3=C(C#N)CCCC3)cc2)cs1` [Compound A141, (R)-1-(1-(6′-Cyano-2′,3′,4′,5′-tetrahydro-[1,1′-biphenyl]-4-yl)-2-hydroxyethyl)-3-(2-ethynylthiazol-4-yl)urea] and `C#Cc1nc(NC(=O)N[C@@H](CO)c2ccc(C3CCCCN3C(C)=O)cc2)cs1` (stereo partly drawn) [Compound A143, 1-((1R)-1-(4-(1-Acetylpiperidin-2-yl)phenyl)-2-hydroxyethyl)-3-(2-ethynyl-thiazol-4-yl)urea] cannot be ordered by EC50: at most 200 nM for the first, at most 200 nM for the second.

`C#Cc1nc(NC(=O)N[C@H](CO)C(=O)N2CC(c3ccccc3C#N)C2)cs1` [Compound A144, (R)-1-(1-(3-(2-Cyanophenyl)azetidin-1-yl)-3-hydroxy-1-oxopropan-2-yl)-3-(2-ethynylthiazol-4-yl)urea] and `C#Cc1nc(NC(=O)N[C@@H](CO)C(=O)N2CC(c3ccccc3C#N)C2)cs1` [Compound A145, (S)-1-(1-(3-(2-Cyanophenyl)azetidin-1-yl)-3-hydroxy-1-oxopropan-2-yl)-3-(2-ethynylthiazol-4-yl)urea] fall in the same range of EC50: 200 to 1000 nM for the first, 200 to 1000 nM for the second.

`C#Cc1nc(NC(=O)N[C@H](CO)C(=O)N2CCC(c3ccccc3C#N)CC2)cs1` [Compound A146, (R)-1-(1-(4-(2-Cyanophenyl)piperidin-1-yl)-3-hydroxy-1-oxopropan-2-yl)-3-(2-ethynylthiazol-4-yl)urea] and `C#Cc1nc(NC(=O)N[C@@H](CO)C(=O)N2CCC(c3ccccc3C#N)CC2)cs1` [Compound A147, (S)-1-(1-(4-(2-Cyanophenyl)piperidin-1-yl)-3-hydroxy-1-oxopropan-2-yl)-3-(2-ethynylthiazol-4-yl)urea] fall in the same range of EC50: 200 to 1000 nM for the first, 200 to 1000 nM for the second.

`C#Cc1nc(NC(=O)N[C@H](CO)C(=O)N2CCN(c3ccccc3C#N)CC2)cs1` [Compound A148, (R)-1-(1-(4-(2-Cyanophenyl)piperazin-1-yl)-3-hydroxy-1-oxopropan-2-yl)-3-(2-ethynylthiazol-4-yl)urea] and `C#Cc1nc(NC(=O)N[C@@H](CO)C(=O)N2CCN(c3ccccc3C#N)CC2)cs1` [Compound A149, (S)-1-(1-(4-(2-Cyanophenyl)piperazin-1-yl)-3-hydroxy-1-oxopropan-2-yl)-3-(2-ethynylthiazol-4-yl)urea] cannot be ordered by EC50: at most 200 nM for the first, at most 200 nM for the second.

`C#Cc1nc(NC(=O)N[C@@H](CO)C2CCN(c3ccccc3C#N)CC2)cs1` [Compound A150, (R)-1-(1-(1-(2-Cyanophenyl)piperidin-4-yl)-2-hydroxyethyl)-3-(2-ethynylthiazol-4-yl)urea] and `C#Cc1nc(NC(=O)N[C@H](CO)C2CCN(c3ccccc3C#N)CC2)cs1` [Compound A151, (S)-1-(1-(1-(2-Cyanophenyl)piperidin-4-yl)-2-hydroxyethyl)-3-(2-ethynylthiazol-4-yl)urea] cannot be ordered by EC50: at most 200 nM for the first, at most 200 nM for the second.

`C#Cc1nc(NC(=O)N[C@@H](CO)C(=O)N2CCC3(CC2)CC3)cs1` [Compound A152, (S)-1-(2-Ethynylthiazol-4-yl)-3-(3-hydroxy-1-oxo-1-(6-azaspiro[2.5]octan-6-yl)propan-2-yl)urea] and `C#Cc1nc(NC(=O)N[C@@H](CO)C(=O)N2CCC3(CCC3)CC2)cs1` [Compound A153, (S)-1-(2-Ethynylthiazol-4-yl)-3-(3-hydroxy-1-oxo-1-(7-azaspiro[3.5]nonan-7-yl)propan-2-yl)urea] cannot be ordered by EC50: at most 200 nM for the first, at most 200 nM for the second.

`C#Cc1nc(NC(=O)N[C@@H](CO)C(=O)N2CCC3(CCCC3)CC2)cs1` [Compound A154, (S)-1-(2-Ethynylthiazol-4-yl)-3-(3-hydroxy-1-oxo-1-(8-azaspiro[4.5]decan-8-yl)propan-2-yl)urea] and `C#Cc1nc(NC(=O)N[C@H](CO)C(=O)N2CCC3(CCCC3)CC2)cs1` [Compound A155, (R)-1-(2-Ethynylthiazol-4-yl)-3-(3-hydroxy-1-oxo-1-(8-azaspiro[4.5]decan-8-yl)propan-2-yl)urea] cannot be ordered by EC50: at most 200 nM for the first, at most 200 nM for the second.

`C#Cc1ncc(NC(=O)N[C@@H](CO)C(=O)N2CCC3(CCCC3=O)CC2)s1` [Compound A156, (S)-1-(2-Ethynylthiazol-5-yl)-3-(3-hydroxy-1-oxo-1-(1-oxo-8-azaspiro[4.5]decan-8-yl)propan-2-yl)urea] and `C#Cc1nc(NC(=O)N[C@@H](CO)C(=O)N2CCC3(CCCCC3)CC2)cs1` [Compound A157, (S)-1-(2-Ethynylthiazol-4-yl)-3-(3-hydroxy-1-oxo-1-(3-azaspiro[5.5]undecan-3-yl)propan-2-yl)urea] cannot be ordered by EC50: at most 200 nM for the first, at most 200 nM for the second.

`C#Cc1nc(NC(=O)N[C@@H](CO)C(=O)N2CCC3(CC2)CCC(F)(F)CC3)cs1` [Compound A158, (S)-1-(1-(9,9-Difluoro-3-azaspiro[5.5]undecan-3-yl)-3-hydroxy-1-oxopropan-2-yl)-3-(2-ethynylthiazol-4-yl)urea] and `C#Cc1nc(NC(=O)N[C@@H](CO)C(=O)N2CCC(F)(F)CC2)cs1` [Compound A161, (S)-1-(1-(4,4-Difluoropiperidin-1-yl)-3-hydroxy-1-oxopropan-2-yl)-3-(2-ethynyl-thiazol-4-yl)urea] cannot be ordered by EC50: at most 200 nM for the first, at most 200 nM for the second.

First: C#Cc1nc(NC(=O)N[C@@H](CO)C(=O)N2CCC(N3CC(F)(F)C3)CC2)cs1 [Compound A159, (S)-1-(1-(4-(3,3-Difluoroazetidin-1-yl)piperidin-1-yl)-3-hydroxy-1-oxopropan-2-yl)-3-(2-ethynylthiazol-4-yl)urea]
Second: C#Cc1nc(NC(=O)N[C@H](CO)C(=O)N2CCC(N3CC(F)(F)C3)CC2)cs1 [Compound A160, (R)-1-(1-(4-(3,3-Difluoroazetidin-1-yl)piperidin-1-yl)-3-hydroxy-1-oxopropan-2-yl)-3-(2-ethynylthiazol-4-yl)urea]
The EC50 of the first is higher: over 5000 nM for the first, 200 to 1000 nM for the second.

`C#Cc1nc(NC(=O)Nc2ncnc3c(F)c(-c4c(F)cccc4OC)c(Cl)cc23)cs1` [Compound A162, 1-(6-Chloro-8-fluoro-7-(2-fluoro-6-methoxyphenyl)quinazolin-4-yl)-3-(2-ethynylthiazol-4-yl)urea] and `C#Cc1nc(NC(=O)Nc2ncnc3c(F)c(-c4cccc5ncsc45)c(Cl)cc23)cs1` [Compound A165, 1-(7-(Benzo[d]thiazol-7-yl)-6-chloro-8-fluoroquinazolin-4-yl)-3-(2-ethynyl-thiazol-4-yl)urea] cannot be ordered by EC50: at most 200 nM for the first, at most 200 nM for the second.

`C#Cc1nc(NC(=O)Nc2ncnc3cc(-c4c(O)cccc4F)ccc23)cs1` [Compound A163, 1-(2-Ethynylthiazol-4-yl)-3-(7-(2-fluoro-6-hydroxyphenyl)quinazolin-4-yl)urea] and `C#Cc1nc(NC(=O)Nc2ncnc3cc(-c4cccnc4C4(C#N)CC4)ccc23)cs1` [Compound A166, 1-(7-(2-(1-Cyanocyclopropyl)pyridin-3-yl)quinazolin-4-yl)-3-(2-ethynylthiazol-4-yl)urea] cannot be ordered by EC50: at most 200 nM for the first, at most 200 nM for the second.

`C#Cc1nc(NC(=O)NCc2ccc(-c3cccc(C4(C#N)CC4)c3)cc2)cs1` [Compound A167, 1-((3′-(1-Cyanocyclopropyl)-[1,1′-biphenyl]-4-yl)methyl)-3-(2-ethynylthiazol-4-yl)urea] and `C#Cc1nc(NC(=O)NCc2ccc(-c3cccc(C4(O)CC4)c3)cc2)cs1` [Compound A168, 1-(2-Ethynylthiazol-4-yl)-3-((3′-(1-hydroxycyclopropyl)-[1,1′-biphenyl]-4-yl)methyl)urea] cannot be ordered by EC50: at most 200 nM for the first, at most 200 nM for the second.

`C#Cc1nc(NC(=O)NCc2ccc(-c3cccc(C(=O)CC)c3)cc2)cs1` [Compound A169, 1-(2-Ethynylthiazol-4-yl)-3-((3′-propionyl-[1,1′-biphenyl]-4-yl)methyl)urea] and `C#Cc1nc(NC(=O)NCc2ccc(-c3cccc(C4(O)CCC4)c3)cc2)cs1` [Compound A170, 1-(2-Ethynylthiazol-4-yl)-3-((3′-(1-hydroxycyclobutyl)-[1,1′-biphenyl]-4-yl)-methyl)urea] cannot be ordered by EC50: at most 200 nM for the first, at most 200 nM for the second.

`C#Cc1nc(NC(=O)NCc2ccc(-c3cccc4nc(N5CC(F)(F)C5)nc(O)c34)cc2)cs1` [Compound A171, 1-(4-(2-(3,3-Difluoroazetidin-1-yl)-4-hydroxyquinazolin-5-yl)benzyl)-3-(2-ethynylthiazol-4-yl)urea] and `C#Cc1nc(NC(=O)NCc2ccc(-c3cccc4nc(OCCO)nc(O)c34)cc2)cs1` [Compound A172, 1-(2-Ethynylthiazol-4-yl)-3-(4-(4-hydroxy-2-(2-hydroxyethoxy)quinazolin-5-yl)-benzyl)urea] cannot be ordered by EC50: at most 200 nM for the first, at most 200 nM for the second.
